Molecules are shown by their SMILES. Values after ≈ are worked out from the molar mass of the structure shown. Like-named read-outs stand apart in the source and are kept apart here.

For assay [1], the system named is S. aureus ATCC 29213. Put plainly: MIC assay. The assay is classed as cell-based, Staphylococcus aureus. Conditions: S. aureus ATCC 29213, Mueller-Hinton broth pH 7.2, aerobic, 37° C., 24 hours. On the procedure:
1. Staphylococcus aureus—the principal staphylococcal test micro-organism used in these studies was Staphylococcus aureus ATCC 29213. This strain is the one recommended for QC/QA purposes in Minimum Inhibitory Concentration (MIC) assays by the US Clinical and Laboratory Standards Institute (formerly the NCCLS), an FDA-recognised body.
(§1) The staphylococci and enterococci were cultured and maintained on Mueller-Hinton Medium (agar and broth) at pH 7.2; they were incubated aerobically at 37° C. for 24 hours.
(§2) This is a standard international method for quantitatively assessing the antimicrobial activity of a compound in a liquid medium. The method used a 96-well microtitre plate, capable of holding about 200 μl of liquid per well. […] The culture media were as described above for the relevant test organisms.
(§3) The wells were inoculated with a liquid suspension of freshly grown micro-organism and incubated under the conditions described above. After incubation, the microtitre plate was examined visually (with the aid of a light box) for cloudiness in each well, which would indicate microbial growth. The MIC value was recorded as the lowest concentration of test compound required to inhibit microbial growth, i.e., the lowest concentration for which the liquid in the well remained clear.
(§4) The assays were conducted in duplicate and included both negative (culture medium only) and positive (culture medium, diluting solvent and inoculum) controls.
(§5) The following experiments all used S. aureus ATCC 29213 as the test organism. MIC, MBC and DDA assays, as described above, were carried out using a range of different benzoquinones and hydroquinones. Supplemented DDA assays, in the presence of salt, lipid and blood, were also conducted.

Assay [2] has as its system S. aureus ATCC 29213. Put plainly: MBC assay. It is filed as cell-based, Staphylococcus aureus. On the procedure: as §1
(§6) This assay, normally carried out after an MIC assay, determines the minimum concentration of a compound that is lethal to the micro-organism being tested.
(§7) These samples were then individually sub-cultured on non-selective agar medium, under the incubation conditions described above. Following incubation they were examined visually for bacterial growth.
as §5

For assay [3], the system named is S. aureus ATCC 29213. Put plainly: Disc diffusion assay (DDA). It is filed as cell-based, Staphylococcus aureus. Conditions: S. aureus ATCC 29213, unsupplemented agar, 200 μg per disc (thymoquinone 50 μg, 2,6-dimethoxy-p-benzoquinone 100 μg); for zone of inhibition at 200 µg/disc: Staphylococcus aureus, ATCC29213, read-out: DDA (diameter of zone of inhibition). On the procedure: as §1
(§8) A sterile paper disc was impregnated with a sample of the test compound and a minimum of 30 minutes allowed for the solvents to evaporate as far as possible. The disc was then placed on an agar plate onto which the test micro-organism had been inoculated. The plate was then incubated under the conditions described above, following which it was examined visually for signs of bacterial growth. […] The diameter of this zone of “inhibition” was measured using a ProtoCOL™ automated zone sizer (Synbiosis, Cambridge, UK).
(§9) The area of the zone of inhibition was calculated from the measured zone diameter (D) using the formula π(D/2)^2.
(§10) For most DDA assays, 200 μg of each compound was loaded onto each disc.
For orientation: In agar diffusion tests the substance spreads into inoculated agar from a disc or well.

The subject of assay [4] is S. aureus ATCC 29213. The assay can be described thus: Supplemented disc diffusion assay. It is filed as cell-based, Staphylococcus aureus. Conditions: S. aureus ATCC 29213, 200 μg per disc (thymoquinone 50 μg, 2,6-dimethoxy-p-benzoquinone 100 μg); for zone of inhibition at 200 µg/disc: Staphylococcus aureus, ATCC29213, 24 h. On the procedure:
as §1, §8
(§11) Performance under these conditions can provide a more reliable indication of activity on topical application. For assays conducted using S. aureus strains, the supplements were defibrinated horse blood (5% v/v), lipid (Tween™ 80 at 1% v/v) and sodium chloride (100 mM). For those using Propionibacterium spp. strains, the supplements were lipid (Tween™ 80 at 1% v/v) and sodium chloride (100 mM).
as §5, §10

In assay [5] the test system is P. acnes NCTC 737. Put plainly: MIC assay. It is filed as cell-based, Propionibacterium acnes. The settings on record: P. acnes NCTC 737, Wilkins-Chalgren broth pH 6.0, anaerobic, 37° C., 72 hours. On the procedure: 2. Propionibacterium spp.—the principal propionibacterial strain used in these studies was Propionibacterium acnes NCTC 737.
(§12) The Propionibacterium spp organisms were cultured and maintained on Wilkins-Chalgren Anaerobe Medium (agar and broth) at pH 6.0; cultures were incubated anaerobically at 37° C. for 72 hours.
as §2, §3, §4
(§13) MIC, MBC and DDA assays, as described above, were carried out using a range of different benzoquinones and hydroquinones. Supplemented DDA assays, in the presence of salt and lipid, were also conducted.

For assay [6], the system named is P. acnes NCTC 737. The assay can be described thus: MBC assay. It is filed as cell-based, Propionibacterium acnes. The settings on record: P. acnes NCTC 737. On the procedure:
as §12, §6, §7, §13

Assay [7] deals with P. acnes NCTC 737. Put plainly: Disc diffusion assay (DDA). The assay is classed as cell-based, Propionibacterium acnes. Conditions: P. acnes NCTC 737, unsupplemented agar, 200 μg per disc (2,6-dimethoxy-p-benzoquinone 100 μg); for zone of inhibition at 200 µg/disc: Cutibacterium acnes, NCTC737, read-out: DDA (diameter of zone of inhibition). On the procedure: as §12, §8, §9, §10

Assay [8] relates to P. acnes NCTC 737. The assay can be described thus: Supplemented disc diffusion assay. The assay is classed as cell-based, Propionibacterium acnes. The settings on record: P. acnes NCTC 737; for zone of inhibition at 200 µg/disc: Cutibacterium acnes, NCTC737, 72 h; for zone of inhibition at 200 µg/disc / DDA + lipid / DDA + salt: 200 μg per disc (2,6-dimethoxy-p-benzoquinone 100 μg). On the procedure:
as §12, §8, §11, §13, §10

The mark [9] stands for this setting: Staphylococcus aureus, ATCC29213, read-out: MIC.
The mark [10] stands for this setting: Staphylococcus aureus, ATCC29213, read-out: MBC.
Setting [11] is: Tween 80 at 1% v/v, read-out: DDA + lipid.
Where [12] appears, read: defibrinated horse blood 5% v/v, read-out: DDA + blood.
Where [13] appears, read: sodium chloride 100 mM, read-out: DDA + salt.
The mark [14] stands for this setting: Cutibacterium acnes, NCTC737, read-out: MIC.
Where [15] appears, read: Cutibacterium acnes, NCTC737, read-out: MBC.
[16] abbreviates: defibrinated horse blood 5% v/v.

The MIC is the lowest concentration found to suppress growth. The term MBC denotes the lowest tested concentration that kills the bacteria rather than only halting them. With `COC1=C(OC)C(=O)C(C)=CC1=O` [2,3-dimethoxy-5-methyl-p-benzoquinone], the MIC in assay [1] (setting [9]) was 7.8 µg/mL (≈ 42.8 µM); in assay [5] (setting [14]), 15.6 µg/mL (≈ 85.6 µM). For the same molecule, the MIC/MBC ratio in assay [2] and in assay [6] was 0.5 each time. Further, the results for the MBC in assay [2] (setting [10]) and in assay [6] (setting [15]) were 15.6 µg/mL (≈ 85.6 µM) and 31.2 µg/mL (≈ 172 µM), respectively. In addition, the zone of inhibition at 200 µg/disc came to 26.8 mm in assay [3]; 26.5 mm in assay [4] (setting [11]); 19.9 mm in assay [4] (setting [12]); 25.8 mm in assay [4] (setting [13]); 33.4 mm in assay [7]; 44 mm in assay [8] (setting [11]). Further, the zone of inhibition at 200 µg/disc in assay [8] (setting [13]) came to 43.4 mm. Moreover, the “effect of lipid on antimicrobial activity” value in assay [8] (activity increases in the presence of lipid) was “potentiated”.
Take `Oc1ccc(O)c(F)c1F` [2,3-difluoro-p-hydroquinone]: the MIC stood at 15.6 µg/mL (≈ 107 µM) in assay [1] and 7.8 µg/mL (≈ 53.4 µM) in assay [5]. Also, the MBC in assay [2] is 15.6 µg/mL (≈ 107 µM); in assay [6], 31.25 µg/mL (≈ 214 µM). Moreover, the MIC/MBC ratio in assay [2] is on record as 1; in assay [6], 0.25. Besides, the “DDA (diameter of zone of inhibition)” value turned out to be 15.77 mm in assay [3] and 0.0 mm in assay [7]. For the same molecule, the “DDA + lipid” value in assay [4] (Tween 80 at 1% v/v) came to 14.63 mm; in assay [8] (Tween 80 at 1% v/v), 0.0 mm. In addition, the “DDA + blood” value in assay [4] (setting [16]) is on record as 10.27 mm. For the same molecule, the results for the “DDA + salt” value in assay [4] (sodium chloride 100 mM) and in assay [8] (sodium chloride 100 mM) were 15.56 mm and 0.0 mm, respectively.
`CC(C)(C)C1=CC(=O)C(=O)C(C(C)(C)C)=C1` [3,5-di-t-butyl-o-benzoquinone]: the MIC came to 7.8 µg/mL (≈ 35.4 µM) in assay [1] (setting [9]) and 15.6 µg/mL (≈ 70.8 µM) in assay [5] (setting [14]). Also, the MIC/MBC ratio in assay [2] and in assay [6] was 1 in each case. For the same molecule, the MBC in assay [2] (setting [10]) is 7.8 µg/mL (≈ 35.4 µM); in assay [6] (setting [15]), 15.6 µg/mL (≈ 70.8 µM). Moreover, the zone of inhibition at 200 µg/disc is 23.4 mm in assay [3]; 17.4 mm in assay [4] (setting [11]); 15.9 mm in assay [4] (setting [12]); 23 mm in assay [4] (setting [13]); 31.8 mm in assay [7]; 26.4 mm in assay [8] (setting [11]). The zone of inhibition at 200 µg/disc in assay [8] (setting [13]) was found to be 40.5 mm.
On to `Oc1c(F)c(F)c(O)c(F)c1F` [tetrafluoro-p-hydroquinone], for which the MIC was determined as 125 µg/mL (≈ 687 µM) in assay [1] and 62.5 µg/mL (≈ 343 µM) in assay [5]. Besides, the MBC in assay [2] and in assay [6] was 125 µg/mL (≈ 687 µM) in each case. Besides, the MIC/MBC ratio in assay [2] came out at 1; in assay [6] it was 0.5. Besides, the “DDA (diameter of zone of inhibition)” value in assay [3] came out at 10.83 mm; in assay [7], 33.86 mm. Moreover, the entries for the “DDA + lipid” value in assay [4] (Tween 80 at 1% v/v) and in assay [8] (Tween 80 at 1% v/v) were 9.38 mm and 0.0 mm, respectively. The “DDA + blood” value in assay [4] (setting [16]) is 0.0 mm. Also, the “DDA + salt” value in assay [4] (sodium chloride 100 mM) is 11.25 mm; in assay [8] (sodium chloride 100 mM), 36.35 mm.
As for `Cc1cc(O)cc(C)c1O` [2,6-dimethyl-p-hydroquinone], the figures for the MIC in assay [1] and in assay [5] were 3.9 µg/mL (≈ 28.2 µM) and 7.8 µg/mL (≈ 56.5 µM), respectively. The MBC was found to be 7.8 µg/mL (≈ 56.5 µM) in assay [2] and 31.25 µg/mL (≈ 226 µM) in assay [6]. Moreover, the MIC/MBC ratio is on record as 0.5 in assay [2] and 0.25 in assay [6]. The figures for the “DDA (diameter of zone of inhibition)” value in assay [3] and in assay [7] were 40.88 mm and 0.0 mm, respectively. Further, the “DDA + lipid” value came out at 47.94 mm in assay [4] (Tween 80 at 1% v/v) and 0.0 mm in assay [8] (Tween 80 at 1% v/v). Moreover, the “DDA + blood” value in assay [4] (setting [16]) is recorded as 25.53 mm. Besides, the “DDA + salt” value in assay [4] (sodium chloride 100 mM) is 43.89 mm; in assay [8] (sodium chloride 100 mM) it was 0.0 mm.
Take `CC1=CC(=O)C(Cl)=CC1=O` [2-chloro-5-methyl-p-benzoquinone]: the MIC in assay [1] (setting [9]) and in assay [5] (setting [14]) was 15.6 µg/mL (≈ 99.6 µM) each time. Moreover, the MIC/MBC ratio in assay [2] and in assay [6] was 1 each time. Moreover, the MBC in assay [2] (setting [10]) and in assay [6] (setting [15]) was 15.6 µg/mL (≈ 99.6 µM) throughout. Also, the zone of inhibition at 200 µg/disc in assay [3] turned out to be 34.5 mm; in assay [4] (setting [11]), 33.9 mm; in assay [4] (setting [12]), 17.7 mm; in assay [4] (setting [13]) it was 34.2 mm; in assay [7], 38.9 mm; in assay [8] (setting [11]), 38.8 mm. Also, the zone of inhibition at 200 µg/disc in assay [8] (setting [13]) was 37.2 mm.

The record behind these values is patent US20090030086A1, “ANTIMICROBIAL AGENTS” (priority 2005, published 2009).
